Experiments:
[1] = 298.15 K; 101.33 kPa; Liquid; Vibrating tube method
[2] = xn = mol fraction of the nth substance listed; conditions: 298.15 K, 101 kPa, Liquid, Vibrating tube method
[3] = excess molar enthalpy (molar enthalpy of mixing); xn = mol fraction of the nth substance listed; conditions: 298.15 K, 101 kPa, Liquid, Flow calorimetry

OCC(F)(F)F [2,2,2-trifluoroethanol]
Conditions	mass density [kg/m3]
[1]	1383.41

CO [methanol]
Conditions	mass density [kg/m3]
[1]	786.3

OCC(F)(F)F [2,2,2-trifluoroethanol] + O
Conditions	excess molar enthalpy [kcal/mol]	mass density [kg/m3]
[2], x1 = 0.00478	–	1005.99
[2], x1 = 0.01029	–	1016.28
[2], x1 = 0.01855	–	1031.19
[2], x1 = 0.02226	–	1037.71
[2], x1 = 0.1002	–	1139.98
[2], x1 = 0.1985	–	1215.51
[2], x1 = 0.3	–	1265.59
[2], x1 = 0.3983	–	1298.93
[2], x1 = 0.4965	–	1322.87
[2], x1 = 0.5995	–	1341.54
[2], x1 = 0.7303	–	1359.16
[2], x1 = 0.839	–	1370.38
[2], x1 = 0.9062	–	1376.17
[2], x1 = 0.9696	–	1381.16
[2], x1 = 0.98	–	1381.89
[2], x1 = 0.9899	–	1382.59
[2], x1 = 0.995	–	1382.97
[2], x1 = 1	–	1383.41
[3], x1 = 0.00546	-0.00688	–
[3], x1 = 0.01088	-0.013	–
[3], x1 = 0.02028	-0.0219	–
[3], x1 = 0.0306	-0.0252	–
[3], x1 = 0.04018	-0.0246	–
[3], x1 = 0.04984	-0.0225	–
[3], x1 = 0.05985	-0.0196	–
[3], x1 = 0.07002	-0.0159	–
[3], x1 = 0.07952	-0.0122	–
[3], x1 = 0.08986	-0.00791	–
[3], x1 = 0.09937	-0.00335	–
[3], x1 = 0.11	0.000789	–
[3], x1 = 0.1193	0.00528	–
[3], x1 = 0.1299	0.0097	–
[3], x1 = 0.1385	0.0143	–
[3], x1 = 0.1486	0.0192	–
[3], x1 = 0.1983	0.0424	–
[3], x1 = 0.2988	0.08652	–
[3], x1 = 0.3988	0.123	–
[3], x1 = 0.4955	0.1497	–
[3], x1 = 0.5989	0.1661	–
[3], x1 = 0.7078	0.1649	–
[3], x1 = 0.8079	0.1296	–
[3], x1 = 0.898	0.073	–
[3], x1 = 0.9054	0.0679	–
[3], x1 = 0.9202	0.0573	–
[3], x1 = 0.9301	0.0499	–
[3], x1 = 0.9387	0.0447	–
[3], x1 = 0.9528	0.0344	–
[3], x1 = 0.9646	0.0249	–
[3], x1 = 0.9732	0.0189	–
[3], x1 = 0.988	0.00963	–
[3], x1 = 0.9952	0.00335	–

CCCO [propan-1-ol] + OCC(F)(F)F
Conditions	mass density [kg/m3]
[2], x2 = 0	799.3

OCC(F)(F)F [2,2,2-trifluoroethanol] + CO
Conditions	excess molar enthalpy [kcal/mol]	mass density [kg/m3]
[2], x1 = 0.00435	–	790.62
[2], x1 = 0.00909	–	795.28
[2], x1 = 0.01555	–	801.57
[2], x1 = 0.01643	–	802.43
[2], x1 = 0.06693	–	849.62
[2], x1 = 0.1862	–	949.42
[2], x1 = 0.3191	–	1045.13
[2], x1 = 0.385	–	1087.8
[2], x1 = 0.4808	–	1144.91
[2], x1 = 0.5797	–	1198.76
[2], x1 = 0.6905	–	1253.74
[2], x1 = 0.8331	–	1317.38
[2], x1 = 0.9196	–	1352.57
[2], x1 = 0.9701	–	1372.13
[2], x1 = 0.9799	–	1375.89
[2], x1 = 0.9913	–	1380.01
[2], x1 = 0.9949	–	1381.47
[2], x1 = 1	–	1383.41
[3], x1 = 0.00548	-0.00519	–
[3], x1 = 0.01037	-0.00949	–
[3], x1 = 0.02045	-0.0191	–
[3], x1 = 0.02995	-0.0283	–
[3], x1 = 0.04012	-0.0376	–
[3], x1 = 0.04831	-0.0459	–
[3], x1 = 0.09938	-0.08521	–
[3], x1 = 0.1996	-0.1461	–
[3], x1 = 0.297	-0.1827	–
[3], x1 = 0.3988	-0.2023	–
[3], x1 = 0.4971	-0.2035	–
[3], x1 = 0.6027	-0.194	–
[3], x1 = 0.7098	-0.1616	–
[3], x1 = 0.8044	-0.1209	–
[3], x1 = 0.8929	-0.0647	–
[3], x1 = 0.9016	-0.0587	–
[3], x1 = 0.9113	-0.0538	–
[3], x1 = 0.9251	-0.0452	–
[3], x1 = 0.9337	-0.0388	–
[3], x1 = 0.9463	-0.0319	–
[3], x1 = 0.9602	-0.0246	–
[3], x1 = 0.9707	-0.0169	–
[3], x1 = 0.9838	-0.00875	–
[3], x1 = 0.9953	-0.0028	–
[3], x1 = 0.9987	-0.000645	–

CCCO [propan-1-ol]
Conditions	mass density [kg/m3]
[1]	799.3

CO [methanol] + OCC(F)(F)F
Conditions	mass density [kg/m3]
[2], x2 = 0	786.3

CCO [ethanol] + OCC(F)(F)F
Conditions	mass density [kg/m3]
[2], x2 = 0	784.83

CCO [ethanol]
Conditions	mass density [kg/m3]
[1]	784.83

OCC(F)(F)F [2,2,2-trifluoroethanol] + CCCO
Conditions	excess molar enthalpy [kcal/mol]	mass density [kg/m3]
[2], x1 = 0.00607	–	802.48
[2], x1 = 0.01063	–	804.92
[2], x1 = 0.02216	–	810.94
[2], x1 = 0.03141	–	815.81
[2], x1 = 0.1032	–	853.69
[2], x1 = 0.2022	–	906.48
[2], x1 = 0.3118	–	965.59
[2], x1 = 0.408	–	1018.5
[2], x1 = 0.5085	–	1075.13
[2], x1 = 0.6057	–	1131.49
[2], x1 = 0.7074	–	1192.38
[2], x1 = 0.8029	–	1251.85
[2], x1 = 0.9023	–	1316.56
[2], x1 = 0.9671	–	1360.54
[2], x1 = 0.9785	–	1368.42
[2], x1 = 0.9898	–	1376.24
[2], x1 = 0.9948	–	1379.83
[2], x1 = 1	–	1383.41
[3], x1 = 0.0054	-0.00299	–
[3], x1 = 0.0092	-0.00578	–
[3], x1 = 0.02045	-0.0111	–
[3], x1 = 0.03258	-0.0163	–
[3], x1 = 0.04077	-0.0215	–
[3], x1 = 0.051	-0.026	–
[3], x1 = 0.1013	-0.0439	–
[3], x1 = 0.2013	-0.0642	–
[3], x1 = 0.3023	-0.0721	–
[3], x1 = 0.4041	-0.073	–
[3], x1 = 0.4962	-0.0645	–
[3], x1 = 0.5974	-0.0539	–
[3], x1 = 0.6998	-0.0417	–
[3], x1 = 0.7987	-0.0275	–
[3], x1 = 0.9003	-0.0137	–
[3], x1 = 0.9108	-0.0123	–
[3], x1 = 0.9211	-0.011	–
[3], x1 = 0.9333	-0.00978	–
[3], x1 = 0.9409	-0.00832	–
[3], x1 = 0.9486	-0.00703	–
[3], x1 = 0.9577	-0.00578	–
[3], x1 = 0.9694	-0.00409	–
[3], x1 = 0.9839	-0.00258	–
[3], x1 = 0.9916	-0.00108	–
[3], x1 = 0.9961	-0.000406	–

OCC(F)(F)F [2,2,2-trifluoroethanol] + CCO
Conditions	excess molar enthalpy [kcal/mol]	mass density [kg/m3]
[2], x1 = 0.00449	–	788
[2], x1 = 0.00898	–	791.1
[2], x1 = 0.02012	–	798.87
[2], x1 = 0.02992	–	805.61
[2], x1 = 0.04022	–	812.7
[2], x1 = 0.05208	–	820.82
[2], x1 = 0.1002	–	853.17
[2], x1 = 0.2003	–	918.54
[2], x1 = 0.3001	–	981.36
[2], x1 = 0.3999	–	1042.13
[2], x1 = 0.5003	–	1101.6
[2], x1 = 0.6012	–	1160.07
[2], x1 = 0.7025	–	1217.72
[2], x1 = 0.7851	–	1264.15
[2], x1 = 0.9109	–	1334.11
[2], x1 = 0.92	–	1339.16
[2], x1 = 0.9299	–	1344.65
[2], x1 = 0.9497	–	1355.58
[2], x1 = 0.9597	–	1361.14
[2], x1 = 0.9697	–	1366.65
[2], x1 = 0.9798	–	1372.26
[2], x1 = 0.9897	–	1377.67
[2], x1 = 1	–	1383.41
[3], x1 = 0.00586	-0.00471	–
[3], x1 = 0.0106	-0.00946	–
[3], x1 = 0.02013	-0.0193	–
[3], x1 = 0.03032	-0.0283	–
[3], x1 = 0.03992	-0.0369	–
[3], x1 = 0.04851	-0.0448	–
[3], x1 = 0.06244	-0.0517	–
[3], x1 = 0.07146	-0.0594	–
[3], x1 = 0.08127	-0.0666	–
[3], x1 = 0.09052	-0.0739	–
[3], x1 = 0.09891	-0.0797	–
[3], x1 = 0.199	-0.1256	–
[3], x1 = 0.2992	-0.1503	–
[3], x1 = 0.3995	-0.1603	–
[3], x1 = 0.5039	-0.157	–
[3], x1 = 0.6029	-0.1387	–
[3], x1 = 0.7014	-0.1179	–
[3], x1 = 0.7964	-0.08435	–
[3], x1 = 0.8945	-0.0468	–
[3], x1 = 0.9072	-0.0426	–
[3], x1 = 0.916	-0.0381	–
[3], x1 = 0.9278	-0.0345	–
[3], x1 = 0.9389	-0.0293	–
[3], x1 = 0.9516	-0.024	–
[3], x1 = 0.9618	-0.0199	–
[3], x1 = 0.9729	-0.0139	–
[3], x1 = 0.9826	-0.00901	–
[3], x1 = 0.992	-0.00356	–
[3], x1 = 0.9988	-0.000908	–
